Experimental data published in the Kinase Knowledgebase extract (Sharma et al. 2016).

Target: MAPK14 (human) (UniProt Q16539)
Assay: In vitro Inhibition of VEGF Stimulated MAPK Activation

Sequence of MAPK14 (human) (Q16539 whole entry, looked up): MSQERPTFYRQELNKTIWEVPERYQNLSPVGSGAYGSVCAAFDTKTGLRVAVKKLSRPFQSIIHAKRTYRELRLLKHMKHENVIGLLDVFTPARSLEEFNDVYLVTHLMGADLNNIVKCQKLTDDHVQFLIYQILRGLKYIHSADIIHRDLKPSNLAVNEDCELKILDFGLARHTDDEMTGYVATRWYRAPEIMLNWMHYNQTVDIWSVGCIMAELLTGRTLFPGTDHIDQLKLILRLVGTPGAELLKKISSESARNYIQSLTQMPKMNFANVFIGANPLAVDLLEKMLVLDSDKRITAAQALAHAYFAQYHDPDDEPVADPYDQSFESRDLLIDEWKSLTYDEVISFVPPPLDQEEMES

COc1cc2ncnc(Oc3ccc(NC(=O)NCc4ccccn4)cc3)c2cc1OC
IC50: 750 nM

COc1cc2nccc(Oc3ccc(NC(=O)Nc4cccc(C)n4)c(C)c3C)c2cc1OC
IC50: 3.7 nM

COc1cc2nccc(Oc3ccc(NC(=O)Nc4ccc(F)cc4C)c(C)c3C)c2cc1OC
IC50: 3.9 nM

C#CCNC(=O)Nc1ccc(Oc2ncnc3cc(OC)c(OC)cc23)cc1F
IC50: 46 nM

CCCNC(=O)Nc1ccc(Oc2ncnc3cc(OC)c(OC)cc23)cc1
IC50: 42 nM

COc1cc2c(Oc3ccc(NC(=O)Nc4ccc(F)cc4F)c(F)c3)ccnc2cc1OCCN1CCOCC1
IC50: 0.5 nM

COc1ccccc1NC(=O)Nc1ccc(Oc2ncnc3cc(OC)c(OC)cc23)cc1C
IC50: < 1 nM

COc1ccccc1NC(=O)Nc1ccc(Oc2ncnc3cc(OC)c(OC)cc23)cc1Cl
IC50: 0.6 nM

COc1ccc(NC(=O)Nc2cc(C)c(Oc3ccnc4cc(OC)c(OC)cc34)cc2C)cc1
IC50: 4.3 nM

COc1cc2nccc(Oc3ccc(NC(=O)Nc4ccc(Br)cn4)c(C)c3C)c2cc1OC
IC50: 4.4 nM

COc1cc2nccc(Oc3cc(C)c(NC(=O)Nc4cccc(F)c4OC)cc3C)c2cc1OC
IC50: 4.9 nM

COc1cc2nccc(Oc3ccc(NC(=O)Nc4ccc(F)cc4F)c(C)c3C)c2cc1OC
IC50: 0.6 nM

COc1cc2ncnc(Oc3ccc(NC(=O)NCc4ccc(F)cc4F)c(Cl)c3)c2cc1OC
IC50: 3.8 nM

COc1cc2nccc(Oc3ccc(NC(=O)Nc4ccccc4C)c(C)c3C)c2cc1OC
IC50: 2.5 nM

CCCCNC(=O)Nc1ccc(Oc2ccnc3cc(OC)c(OC)cc23)cc1F
IC50: 5.1 nM

COCCOc1cc2nccc(Oc3cc(C)c(NC(=O)Nc4ccc(F)cc4F)cc3C)c2cc1OC
IC50: 5.1 nM

COc1cc2nccc(Oc3ccc(NC(=O)NCC(C)C)c(F)c3)c2cc1OC
IC50: 15 nM

CCCCCNC(=O)Nc1ccc(Oc2ncnc3cc(OC)c(OC)cc23)cc1
IC50: 21 nM

COCCOc1cc2nccc(Oc3ccc(NC(=O)Nc4ccc(F)cc4F)c(C)c3C)c2cc1OC
IC50: 5.1 nM

COCCOc1cc2nccc(Oc3cc(C)c(NC(=O)Nc4ccccc4OC)cc3C)c2cc1OC
IC50: 5.8 nM

COCCOc1cc2nccc(Oc3ccc(NC(=O)Nc4ccc(F)cc4F)c(Cl)c3)c2cc1OC
IC50: 0.5 nM

CCCNC(=O)Nc1ccc(Oc2ncnc3cc(OC)c(OC)cc23)cc1C
IC50: 150 nM

COc1cc2nccc(Oc3ccc(NC(=O)Nc4ccc(Br)cn4)c(Cl)c3)c2cc1OC
IC50: 11 nM

COc1cc2nccc(Oc3ccc(NC(=O)Nc4ccc(F)cc4F)c([N+](=O)[O-])c3)c2cc1OC
IC50: 0.5 nM

CCCNC(=O)Nc1ccc(Oc2ccnc3cc(OC)c(OC)cc23)cc1[N+](=O)[O-]
IC50: 4 nM

COc1cc2nccc(Oc3ccc(NC(=O)Nc4cccc5ccccc45)c(Cl)c3)c2cc1OC
IC50: 5.4 nM

COc1cc2ncnc(Oc3ccc(NC(=O)Nc4ccccc4C)c(F)c3)c2cc1OC
IC50: 2.7 nM

CCCCNC(=O)Nc1ccc(Oc2ncnc3cc(OC)c(OC)cc23)c(C)c1
IC50: 450 nM

COCCOc1cc2nccc(Oc3ccc(NC(=O)Nc4ccccc4OC)c(C)c3C)c2cc1OC
IC50: 6.5 nM

COc1cc2c(Oc3cc(C)c(NC(=O)Nc4ccc(F)cc4F)cc3C)ccnc2cc1OCCN1CCOCC1
IC50: 4.4 nM

C#CCNC(=O)Nc1ccc(Oc2ncnc3cc(OC)c(OC)cc23)cc1
IC50: 67 nM

COc1cc2nccc(Oc3cc(C)c(NC(=O)Nc4ccc(F)cc4F)cc3C)c2cc1OC
IC50: 2.3 nM

COc1cc2nccc(Oc3ccc(NC(=O)Nc4ccc(Cl)cc4C)c(C)c3C)c2cc1OC
IC50: 7.3 nM

COc1cc2nccc(Oc3ccc(NC(=O)Nc4ccc(Cl)cn4)c(Cl)c3)c2cc1OC
IC50: 2.9 nM

COc1ccccc1NC(=O)Nc1cc(C)c(Oc2ccnc3cc(OCCN4CCOCC4)c(OC)cc23)cc1C
IC50: 5.9 nM

COc1cc2nccc(Oc3cc(C)c(NC(=O)Nc4ccc(F)cc4C)cc3C)c2cc1OC
IC50: 12 nM

COc1cc2ncnc(Oc3ccc(NC(=O)NCc4ccccn4)c(Cl)c3)c2cc1OC
IC50: > 1000 nM

CCCCNC(=O)Nc1ccc(Oc2ncnc3cc(OC)c(OC)cc23)cc1F
IC50: 45 nM

CCCNC(=O)Nc1ccc(Oc2ncnc3cc(OC)c(OC)cc23)cc1[N+](=O)[O-]
IC50: 10.2 nM

COc1ccccc1NC(=O)Nc1ccc(Oc2ccnc3cc(OC)c(OC)cc23)c(C)c1C
IC50: 1.7 nM

COc1cc2nccc(Oc3c(Cl)cc(NC(=O)Nc4ccc(F)cc4F)cc3Cl)c2cc1OC
IC50: 4.3 nM

COc1cc2ncnc(Oc3ccc(NC(=O)NCc4ccc(F)cc4F)c(F)c3)c2cc1OC
IC50: 14 nM

CCCCCNC(=O)Nc1ccc(Oc2ncnc3cc(OC)c(OC)cc23)cc1Cl
IC50: 4.1 nM

CCCNC(=O)Nc1ccc(Oc2ccnc3cc(OC)c(OC)cc23)cc1Cl
IC50: 2.2 nM

C#CCNC(=O)Nc1ccc(Oc2ccnc3cc(OC)c(OC)cc23)cc1F
IC50: 5.2 nM

COc1cc2ncnc(Oc3ccc(NC(=O)Nc4ccc(F)cc4F)c(F)c3)c2cc1OC
IC50: 1.8 nM

COc1ccc(NC(=O)Nc2ccc(Oc3ccnc4cc(OC)c(OC)cc34)c(C)c2C)cc1
IC50: 3.3 nM

COc1cc2ncnc(Oc3ccc(NC(=O)Nc4ccc(F)cc4)c(Cl)c3)c2cc1OC
IC50: 0.7 nM

COc1cc2nccc(Oc3ccc(NC(=O)Nc4ccc(C)cn4)c(C)c3C)c2cc1OC
IC50: 4.2 nM

CCNC(=O)Nc1ccc(Oc2ncnc3cc(OC)c(OC)cc23)cc1Cl
IC50: 8 nM

COc1cc2nccc(Oc3ccc(NC(=O)Nc4ccc(Cl)cn4)c(C)c3C)c2cc1OC
IC50: 4 nM

CCCCNC(=O)Nc1ccc(Oc2ncnc3cc(OC)c(OC)cc23)cc1C
IC50: 53 nM

CCCNC(=O)Nc1ccc(Oc2ccnc3cc(OC)c(OC)cc23)cc1F
IC50: 2.9 nM

CCC(C)NC(=O)Nc1ccc(Oc2ccnc3cc(OC)c(OC)cc23)cc1F (stereo not drawn)
IC50: 7.8 nM

COc1cc2nccc(Oc3cc(C)c(NC(=O)Nc4ccccc4C)cc3C)c2cc1OC
IC50: 5.9 nM

COc1cc2ncnc(Oc3ccc(NC(=O)NCc4ccc(F)cc4F)cc3)c2cc1OC
IC50: 6800 nM

COc1cc2nccc(Oc3ccc(NC(=O)Nc4ccccc4C)c(Cl)c3)c2cc1OC
IC50: 0.6 nM

COCCOc1cc2nccc(Oc3ccc(NC(=O)Nc4ccccc4OC)c(Cl)c3)c2cc1OC
IC50: 2.8 nM

COc1cc2ncnc(Oc3ccc(NC(=O)Nc4ccc(F)cc4)cc3)c2cc1OC
IC50: < 2 nM

COc1cc2nccc(Oc3ccc(NC(=O)Nc4cccc(C)n4)c(Cl)c3)c2cc1OC
IC50: 3.4 nM

COc1cc2nccc(Oc3ccc(NC(=O)Nc4cccc(F)c4OC)c(C)c3C)c2cc1OC
IC50: 5.3 nM

COc1ccccc1NC(=O)Nc1ccc(Oc2ncnc3cc(OC)c(OC)cc23)cc1F
IC50: < 1 nM

COc1ccc(NC(=O)Nc2ccc(Oc3ccnc4cc(OC)c(OC)cc34)cc2Cl)cc1
IC50: 0.4 nM

COc1cc2ncnc(Oc3ccc(NC(=O)Nc4ccc(Cl)cn4)c(Cl)c3)c2cc1OC
IC50: 58 nM

COc1ccc(NC(=O)Nc2cc(C)c(Oc3ccnc4cc(OC)c(OC)cc34)cc2C)c(OC)n1
IC50: 2 nM

C=CCNC(=O)Nc1ccc(Oc2ccnc3cc(OC)c(OC)cc23)cc1F
IC50: 2.1 nM

CCCNC(=O)Nc1ccc(Oc2ncnc3cc(OC)c(OC)cc23)c(C)c1
IC50: 518 nM

COc1cc2nccc(Oc3ccc(NC(=O)Nc4ccccn4)c(C)c3C)c2cc1OC
IC50: 3.5 nM

COc1ccccc1NC(=O)Nc1ccc(Oc2ncnc3cc(OC)c(OC)cc23)cc1
IC50: 1.2 nM

COc1cc2ncnc(Oc3ccc(NC(=O)Nc4ccc(F)cc4)cc3C)c2cc1OC
IC50: 5.2 nM

CCC(C)NC(=O)Nc1ccc(Oc2ncnc3cc(OC)c(OC)cc23)cc1 (stereo not drawn)
IC50: 345 nM

COc1cc2ncnc(Oc3ccc(NC(=O)Nc4ccc(F)cc4F)cc3C)c2cc1OC
IC50: 8.8 nM

COc1cc2nccc(Oc3ccc(NC(=O)Nc4ccc(F)cc4C)c(Cl)c3)c2cc1OC
IC50: 0.7 nM

CCCNC(=O)Nc1ccc(Oc2ncnc3cc(OC)c(OC)cc23)cc1Cl
IC50: 16 nM

CCCCNC(=O)Nc1ccc(Oc2ncnc3cc(OC)c(OC)cc23)cc1Cl
IC50: 71 nM

CCNC(=O)Nc1ccc(Oc2ccnc3cc(OC)c(OC)cc23)cc1F
IC50: 11 nM

COc1cc2ncnc(Oc3ccc(NC(=O)Nc4ccccc4C)cc3)c2cc1OC
IC50: 6 nM

C=CCNC(=O)Nc1ccc(Oc2ncnc3cc(OC)c(OC)cc23)cc1
IC50: 45 nM

C=CCNC(=O)Nc1ccc(Oc2ncnc3cc(OC)c(OC)cc23)cc1Cl
IC50: 13 nM

COc1cc2ncnc(Oc3ccc(NC(=O)Nc4ccc(F)cc4F)c(C)c3)c2cc1OC
IC50: 5.3 nM

CCC(C)NC(=O)Nc1ccc(Oc2ncnc3cc(OC)c(OC)cc23)cc1Cl (stereo not drawn)
IC50: 30 nM

COc1ccccc1NC(=O)Nc1ccc(Oc2ccnc3cc(OC)c(OC)cc23)cc1Cl
IC50: 0.6 nM

COc1cc2ncnc(Oc3ccc(NC(=O)Nc4ccc(F)cc4)c(C)c3)c2cc1OC
IC50: 2.3 nM

COc1ccccc1NC(=O)Nc1cc(C)c(Oc2ccnc3cc(OC)c(OC)cc23)cc1C
IC50: 3.8 nM

CCC(C)NC(=O)Nc1ccc(Oc2ncnc3cc(OC)c(OC)cc23)cc1F (stereo not drawn)
IC50: 42 nM

CCNC(=O)Nc1ccc(Oc2ncnc3cc(OC)c(OC)cc23)cc1
IC50: 70 nM

COc1cc2nccc(Oc3ccc(NC(=O)Nc4ccc(C)cn4)c(Cl)c3)c2cc1OC
IC50: 8.5 nM

COc1cc2nccc(Oc3ccc(NC(=O)NCc4ccc(F)cc4F)c(F)c3)c2cc1OC
IC50: 1.8 nM
